Structures can show the parent of a compound that is named as a salt.

The values below come from US7935719B2, “N-substituted-azacyclylamines as histamine-3 antagonists” (Wyeth LLC, priority 2006, dated 2011).

T1 sequence (Q9Y5N1 whole entry): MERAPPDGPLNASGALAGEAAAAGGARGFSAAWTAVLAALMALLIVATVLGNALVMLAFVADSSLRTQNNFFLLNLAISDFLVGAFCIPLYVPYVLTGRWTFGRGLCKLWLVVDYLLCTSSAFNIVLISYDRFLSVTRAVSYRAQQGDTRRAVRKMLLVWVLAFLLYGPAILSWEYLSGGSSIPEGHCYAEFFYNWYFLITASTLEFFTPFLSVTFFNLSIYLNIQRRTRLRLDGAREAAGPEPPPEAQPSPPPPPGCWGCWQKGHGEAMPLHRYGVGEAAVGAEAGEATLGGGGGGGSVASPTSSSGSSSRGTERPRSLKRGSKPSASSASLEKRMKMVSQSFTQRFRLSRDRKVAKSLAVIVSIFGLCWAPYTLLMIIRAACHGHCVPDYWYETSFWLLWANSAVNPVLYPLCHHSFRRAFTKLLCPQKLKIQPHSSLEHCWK

One experiment concerns the target T1, Histamine Receptor H3 (Homo sapiens, UniProt Q9Y5N1). The experiment can be described thus: Methyl histamine binding in human histamine H3 receptor cell line. The arrangement: expressed in transfected cells; host or cells: HEK293T. Conditions: membranes of stably transfected HEK293T cells, radioligand 1 nM, Ki from IC50 by Cheng-Prusoff. On the procedure: Evaluation of Methyl Histamine Binding in Human Histamine H3 Receptor Cell Line
The affinity of test compounds for the histamine 3 (H3) receptor is evaluated in the following manner. […] Cells are scraped from the plate, transferred to centrifuge tubes, washed one time in PBS by centrifugation in a Sorvall RT7 Plus centrifuge (2000 rpm 10 minutes, 4° C.). The resulting pellets are stored at −80° C. until ready for use. Cells are re-suspended in buffer (50 mM Tris pH=7.5) and placed in a Dounce homogenizer, douncing ten times to homogenize cells. The homogenate is spun down by centrifugation (Sorvall RT7 Plus, 1800 rpm 10 minutes, 4° C.). The supernatant is placed in a Corex tube and spun down by centrifugation (Sorvall RC 5c Plus, 17,000 rpm 20 minutes, 4° C.). The pellet is resuspended in buffer (50 mM Tris, pH 7.5). Protein concentration (ug/ul) is determined using the Micro-BCA Protein Determination. The binding assay is set up in a 96 well microtiter plate in a total volume of 250 uL. Non-specific binding is determined in the presence of 10 uM clobenpropit. The final radioligand concentration is 1 nM. The test compound is serially diluted using the Beckman Biomek2000 to a final approximate range of 100 uM to 100 pM. Membranes are suspended in buffer, homogenized in 2 bursts of ten seconds using a Vitris mechanical homogenizer set at power setting 5. Ten μg of membranes are added to each well. Following a one hour incubation at 30° C., the reaction is terminated by the addition of ice cold buffer and rapid filtration with a Packard Filtermate Harvester through a GF/B filter pre-soaked with 1% PEI for one hour. The plate is dried for one hour at 37° C. and 60 μL Microscint Scintillant is added to each well. The CPM per well is measured on a Packard Top Count NXT. Ki values are determined in nM. […] CPM values are expressed as % specific binding and plotted vs compound concentration. A curve is fitted using a four-parameter logistic fit and the IC50 value is determined. The Ki is calculated from this using the Cheng-Prusoff equation: […]=IC50/1+(L/Kd) where L=concentration of free radioligand used in the assay, and Kd is the dissociation constant of the radioligand for the receptor. L is determined for each experiment by counting an aliquot of the diluted radioligand (corresponding to that added to each well) and the Kd has previously been determined under identical conditions for this cell line/radioligand.
The term Ki denotes the dissociation constant of the complex between target and ligand, obtained from inhibition or displacement. Lower therefore signals tighter binding. `O=C(c1ccc(-n2cnc3ccccc32)cc1)N1CCC(N2CCCC2)C1` (stereo not shown) [Example 2, 1′-[4-1H-benzimidazol-1-yl)benzoyl]-1,3′-bipyrrolidine hydrochloride] displayed a Ki of less than 10 nM.

Turning to `O=C(c1ccc(-n2cnc3ccccc32)cc1)N1CC[C@H](N2CCCC2)C1` [Example 5, (3′S)-1′-[4-(1H-benzimidazol-1-yl)benzoyl]-1,3′-bipyrrolidine hydrochloride], the Ki was less than 10 nM.

`C[C@@H]1CCCN1[C@H]1CCN(C(=O)c2ccc(-n3cnc4ccccc43)cc2)C1` [Example 6, (2R,3′S)-1′-[4-(1H-benzimidazol-1-yl)benzoyl]-2-methyl-1,3′-bipyrrolidine] gave a Ki of 10.1 to 25 nM.

Take `CC1CCCN([C@H]2CCN(C(=O)c3ccc(-n4cnc5ccccc54)cc3)C2)C1` (stereo partly drawn) [Example 8, 1-(4-{[(3S)-3-(3-methylpiperidin-1-yl)pyrrolidin-1-yl]carbonyl}phenyl)-1H-benzimidazole]: the Ki is less than 10 nM.

Compound `CC1CCN([C@H]2CCN(C(=O)c3ccc(-n4cnc5ccccc54)cc3)C2)CC1` [Example 9, 1-(4-{[(3S)-3-(4-methylpiperidin-1-yl)pyrrolidin-1-yl]carbonyl}phenyl)-1H-benzimidazole] gave a Ki of more than 100 nM.

`CN1CCN([C@H]2CCN(C(=O)c3ccc(-n4cnc5ccccc54)cc3)C2)CC1` [Example 10, 1-(4-{[(3S)-3-(4-methylpiperazin-1-yl)pyrrolidin-1-yl]carbonyl}phenyl)-1H-benzimidazole] returned a Ki of more than 100 nM.

In turn, `CC1CCCCN1[C@H]1CCN(C(=O)c2ccc(-n3cnc4ccccc43)cc2)C1` (stereo partly drawn) [Example 12, 1-(4-{[(3S)-3-(2-methylpiperidin-1-yl)pyrrolidin-1-yl]carbonyl}phenyl)-1H-benzimidazole] displayed a Ki of 25.1 to 50 nM.

With `O=C(c1ccc(-n2cnc3ccccc32)cc1)N1CC[C@H](N2CCCCC2)C1` [Example 13, 1-(4-{[(3S)-3-piperidin-1-ylpyrrolidin-1-yl]carbonyl}phenyl)-1H-benzimidazole], the Ki was less than 10 nM.

`c1ccc2c(c1)ncn2-c1ccc(CN2CC[C@H](N3CCCC3)C2)cc1` [Example 14, (3′S)-1′-[4-(1H-benzimidazol-1-yl)benzyl]-1,3′-bipyrrolidine hydrochloride]: the Ki was less than 10 nM.

The compound `c1ccc2c(c1)ncn2-c1ccc(CN2CC[C@H](N3CCCCC3)C2)cc1` [Example 15, (1-(4-{[(3S)-3-piperidin-1-ylpyrrolidin-1-yl]methyl}phenyl)-1H-benzimidazolefumaric acid salt] showed a Ki of less than 10 nM.

`Cc1nc2ccccc2n1-c1ccc(CN2CC[C@H](N3CCCC3)C2)cc1` [Example 17, (3′S)-1′-[4-(2-methyl-1H-benzimidazol-1-yl)benzyl]-1,3′-bipyrrolidine] gave a Ki of less than 10 nM.

`Cc1nc2ccccc2n1-c1ccc(CN2CC[C@H](N3CCCCCC3)C2)cc1` [Example 18, 1-(4-{[(3S)-3-azepan-1-ylpyrrolidin-1-yl]methyl}phenyl)-2-methyl-1H-benzimidazole] gave a Ki of less than 10 nM.

Take `Cc1nc2ccccc2n1-c1ccc(C(=O)N2CC[C@H](N3CCCCCC3)C2)cc1` [Example 20, 1-(4-{[(3S)-3-azepan-1-ylpyrrolidin-1-yl]carbonyl}phenyl)-2-methyl-1H-benzimidazole fumaric acid salt]: the Ki was less than 10 nM.

Regarding `Cc1nc2ccccc2n1-c1ccc(C(=O)N2CC[C@H](N3CCCCC3C)C2)cc1` (stereo partly drawn) [Example 23, 2-methyl-1-(4-{[(3S)-3-(2-methylpiperidin-1-yl)pyrrolidin-1-yl]carbonyl}phenyl)-1H-benzimidazole], the Ki is less than 10 nM.

The compound `Cc1nc2ccccc2n1-c1ccc(C(=O)N2CC[C@H](N3CCC(C)CC3)C2)cc1` [Example 25, 2-methyl-1-(4-{[(3S)-3-(4-methylpiperidin-1-yl)pyrrolidin-1-yl]carbonyl}phenyl)-1H-benzimidazole] returned a Ki of 25.1 to 50 nM.

In turn, `Cc1nc2ccccc2n1-c1ccc(C(=O)N2CC[C@H](N3CCN(C)CC3)C2)cc1` [Example 26, 2-methyl-1-(4-{[(3S)-3-(4-methylpiperazin-1-yl)pyrrolidin-1-yl]carbonyl}phenyl)-1H-benzimidazole] returned a Ki of more than 100 nM.

In the case of `O=C(c1ccc(-n2ccc3ccccc32)cc1)N1CC[C@H](N2CCCC2)C1` [Example 30, (3′S)-1′-[4-(1H-indol-1-yl)benzoyl]-1,3′-bipyrrolidine hydrochloride], the Ki is less than 10 nM.

In the case of `O=C(c1ccc(-n2ccc3c(Cl)cccc32)cc1)N1CC[C@H](N2CCCC2)C1` [Example 32, (3′S)-1′-[4-(4-chloro-1H-indol-1-yl)benzoyl]-1,3′-bipyrrolidine], the Ki is less than 10 nM.

`O=C(c1ccc(-n2ccc3cccc(Cl)c32)cc1)N1CC[C@H](N2CCCC2)C1` [Example 34, (3′S)-1′-[4-(7-chloro-1H-indol-1-yl)benzoyl]-1,3′-bipyrrolidine] had a Ki of less than 10 nM.

For the compound `O=C(c1ccc(-n2ccc3cc(Br)ccc32)cc1)N1CC[C@H](N2CCCC2)C1` [Example 35, (3′S)-1′-[4-(5-bromo-1H-indol-1-yl)benzoyl]-1,3′-bipyrrolidine], the Ki was less than 10 nM.

Turning to `Cc1cc2ccccc2n1-c1ccc(C(=O)N2CC[C@H](N3CCCC3)C2)cc1` [Example 38, (3′S)-1′-[4-(2-methyl-1H-indol-1-yl)benzoyl]-1,3′-bipyrrolidine], the Ki was less than 10 nM.

`O=C(c1ccc(-n2ncc3cc(F)ccc32)cc1)N1CC[C@H](N2CCCC2)C1` [Example 40, (3′S)-1′-[4-(5-fluoro-1H-indazol-1-yl)benzoyl]-1,3′-bipyrrolidine] had a Ki of less than 10 nM.

`O=C(c1ccc(-n2ncc3ccc(F)cc32)cc1)N1CC[C@H](N2CCCC2)C1` [Example 41, (3′S)-1′-[4-(6-fluoro-1H-indazol-1-yl)benzoyl]-1,3′-bipyrrolidine] registered a Ki of 10.1 to 25 nM.

In turn, `N#Cc1ccc2c(cnn2-c2ccc(C(=O)N3CC[C@H](N4CCCC4)C3)cc2)c1` [Example 42, 1-{4-[(3′S)-1,3′-bipyrrolidin-1′-ylcarbonyl]phenyl}-1H-indazole-5-carbonitrile] yielded a Ki of less than 10 nM.

Compound `N#Cc1ccc2nn(-c3ccc(C(=O)N4CC[C@H](N5CCCC5)C4)cc3)cc2c1` [Example 43, 2-{4-[(3′S)-1,3′-bipyrrolidin-1′-ylcarbonyl]phenyl}-2H-indazole-5-carbonitrile] displayed an inhibition constant Ki of less than 10 nM.

`O=C(c1ccc(-n2cc3ccc(F)cc3n2)cc1)N1CC[C@H](N2CCCC2)C1` [Example 44, (3′S)-1′-[4-(6-fluoro-2H-indazol-2-yl)benzoyl]-1,3′-bipyrrolidine] gave a Ki of less than 10 nM.

`O=C(c1ccc(-n2cc3cc(F)ccc3n2)cc1)N1CC[C@H](N2CCCC2)C1` [Example 45, (3′S)-1′-[4-(5-fluoro-2H-indazol-2-yl)benzoyl]-1,3′-bipyrrolidine] showed a Ki of less than 10 nM.

Compound `N#Cc1ccc2c(ccn2-c2ccc(C(=O)N3CC[C@@H](N4CCCC4)C3)cc2)c1` [Example 46, 1-{4-[(3′R)-1,3′-bipyrrolidin-1′-ylcarbonyl]phenyl}-1H-indole-5-carbonitrile] yielded a Ki of less than 10 nM.

`N#Cc1ccc2c(c1)ncn2-c1ccc(C(=O)N2CC[C@H](N3CCCC3)C2)cc1` [Example 48, 1-{4-[(3′S)-1,3′-bipyrrolidin-1′-ylcarbonyl]phenyl}-1H-benzimidazole-5-carbonitrile fumarate] had a Ki of 25.1 to 50 nM.

The target in another experiment is T1, Histamine Receptor H3. In words: Cyclic AMP assay for histamine receptor H3 antagonism activity. The experiment is classed as cell-based. Conditions: stable H3 cells, histamine plus 10 μM forskolin, 30 min at 30° C., HitHunter cAMP kit. The arrangement: expressed in transfected cells. As for the experimental part: Cyclic Amp Assay for Histamine Receptor H3 Antagonism Activity.
Stable H3 cells are maintained in tissue culture flask in DMEM with high glucose, 10% FBS, 1× pen/strep, 500 ug/ml GY18, until experiment. Culture media is removed and cells are washed twice with PBS w/Ca+2 and Mg+2 plus 500 μM IBMX. Cells are then detached by tapping on the side of the flask and resuspend in the same buffer. Two thousand cells/well are incubated with 1 μM histamine plus 10 μM forskolin plus various concentrations of compounds in a total volume of 30 μL in 96 well plates for 30 min at 30° C. Final test compound concentrations range from 10^-4 M to 10-9.5 M at full log dilutions. Cyclic AMP levels are measured using HitHunter cAMP kit from Discoverx, cat#900041 according to manufacturer's instruction. Chemiluminescence signals are detected using Top Count (Packard). Cyclic AMP levels in control cells receiving 10 μM forskolin plus 100 nM histamine are considered 0%, and in cells receiving 10 uM forskolin plus 100 nM histamine plus 1 μM clobenpropit are considered 100%. Data are expressed as % control and analyzed using Prizm software. The Kb values are calculated using the following equation, KB=EC50 or IC50/[1+(ligand/Kd)].
One may read the Kb as the equilibrium dissociation constant of an antagonist, usually derived from a functional assay. Regarding `O=C(c1ccc(-n2cnc3ccccc32)cc1)N1CCC(N2CCCC2)C1` (stereo not shown) [Example 2, 1′-[4-1H-benzimidazol-1-yl)benzoyl]-1,3′-bipyrrolidine hydrochloride], the Kb was less than 10 nM.

For the compound `O=C(c1ccc(-n2cnc3ccccc32)cc1)N1CC[C@H](N2CCCC2)C1` [Example 5, (3′S)-1′-[4-(1H-benzimidazol-1-yl)benzoyl]-1,3′-bipyrrolidine hydrochloride], the Kb lay in the range of 25.1 to 50 nM.
